Test results taken from patent US8173131B2, “Compositions and methods for modulating RSV infection and immunity” (PerkinElmer Health Sciences, Inc., priority 2000, dated 2012).

T1: CX3CR1 (293-CX3CR1 cells) (Homo sapiens, UniProt P49238)
T1 construct: expressed in transfected cells
T1 sequence (P49238 1-355): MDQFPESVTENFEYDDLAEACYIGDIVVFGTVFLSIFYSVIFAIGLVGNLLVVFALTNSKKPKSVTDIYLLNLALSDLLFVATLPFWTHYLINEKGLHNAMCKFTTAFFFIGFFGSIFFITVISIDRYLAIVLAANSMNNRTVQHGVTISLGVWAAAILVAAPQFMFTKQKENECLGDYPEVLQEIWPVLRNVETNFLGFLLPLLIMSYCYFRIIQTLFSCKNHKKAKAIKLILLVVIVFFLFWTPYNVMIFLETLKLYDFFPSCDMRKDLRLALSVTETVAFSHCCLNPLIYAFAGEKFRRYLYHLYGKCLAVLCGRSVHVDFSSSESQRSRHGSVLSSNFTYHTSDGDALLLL

B1: GHIS: purified recombinant soluble polyhistidine-tagged G glycoprotein from transfected Vero cells (protein)
chain: NHKVTPTTAIIQDATSQIKNTTPTYLTQNPQLGISPSNPSEITSQITTILASTTPGVKSTLQSTTVKTKNTTTTQTQPSKPTTKQRQNKPPSKPNNDFHFEVFNFVPCSICSNNPTCWAICKRIPNKKPGKKTTTKPTKKPTLKTTKKDPKPQTTKSKEVPTTKPTEEPTINTTKTNIITTLLTSNTTGNPELTSQMETFHSTSSEGNPSPSQVSTTSEYPSQPSSPPNTPRQ
modifications: left off: small tags and cut ends
notes: purified recombinant soluble polyhistidine-tagged G glycoprotein from transfected Vero cells

Legend:
[1] = system: 293 cells; assay: G glycoprotein and Fkn binding to untransfected 293 control cells by flow cytometry; set-up: species or system human; settings: for binding to 293 cells: wheat germ lectin column fraction (G, F glycoprotein) or purified recombinant polyhistidine-tagged G glycoprotein
Experimental: (§1) Purified G glycoprotein was examined for binding to 293-CX3CR1 cells^33. A pcDNA 3.1 plasmid containing the CX3CR1 gene and a neomycin resistance gene was used to stably transfect human embryonic kidney (HEK) cells. Neomycin resistance was used for selection and maintenance of plasmid transfection of human embryonic kidney cells.
(§2) All binding studies were done on ice and either G glycoprotein or human Fkn (R&D Diagnostics, Minneapolis, Minn.) were diluted between 1 nM-100 nM in PBS (GIBCO) containing 1% bovine serum albumin (Sigma) and incubated with the 293-CX3CR1 cells or 293 control cells for 30 min at 4° C. […] For inhibition studies, 100 pM-1 μM human Fkn or G glycoprotein was preincubated with the cells for 30 min at 4° C. Without washing, 100 pM of either Fkn or G glycoprotein was added and incubated for 30 min at 4° C. The cells were washed, blocked with FcγRIII blocking antibody (HB197) for 30 min on ice, washed and stained as appropriate with either an anti-G glycoprotein monoclonal antibody cocktail (132-5B, 132-5G, 130-2G, 232-IF) or a biotinylated anti-G glycoprotein monoclonal antibody cocktail (130-2G, 131-2G) or anti-Fkn monoclonal antibody (51637.11; R&D Diagnostics). Concentrations of 1 μg of anti-G glycoprotein monoclonal antibody (131-2G)^34, rabbit anti-CX3CR1 sera^33, and anti-CX3CR1 monoclonal antibody containing 10 μg/ml heparin were used in all experiments. […] Staining was detected with absorbed FITC-goat anti-mouse (H & L chain) monoclonal antibody (PharMingen, San Diego, Calif.) or streptavidin-PE (PharMingen) using flow cytometry (FACScan, Becton-Dickinson, Mountain View, Calif.). A 76 amino acid ^125I-Fkn polypeptide comprising the […] (NEN, Boston, Mass.) was used in radioligand studies^33. As a control, the void volume following purified G glycoprotein passaged over an anti-G glycoprotein antibody (130-2G) affinity column was examined by flow cytometry for binding to either 293 or 293-CX3CR1 cells.
(§3) The receptor for Fkn, CX3CR1, was previously identified and characterized using anti-CX3CR1 rabbit antiserum and CX3CR1-transfected human embryonic kidney cells (293-CX3CR1 cells)^33.

[2] = biological target: T1, CX3CR1 (293-CX3CR1 cells); assay: G glycoprotein and Fkn binding to 293-CX3CR1 cells by flow cytometry; settings: for binding to 293-CX3CR1 cells: wheat germ lectin column fraction (G, F glycoprotein) or purified recombinant polyhistidine-tagged G glycoprotein
Experimental: as §1
as §2, with “[…])” for “Minn.) were diluted between 1 nM-100 nM in PBS (GIBCO)”
as §3
The percent Fkn-maximum binding was calculated using the equation: [% G (or Fkn) 293-CX3CR1]-[% G (or Fkn) 293]/[% Fkn (10 nM) 293-CX3CR1]-[% Fkn (10 nM) 293], where G=G glycoprotein, Fkn=fractalkine, 293-CX3CR1=CX3CR1-transfected 293, 293=untransfected 293. The concentration of G glycoprotein was estimated using a molecular weight of 90 kD.

[3] = biological target: T2, Fkn binding to 293-CX3CR1 cells (Homo sapiens, UniProt P49238); settings: heparin 5 μg/ml alone
T2 construct: host or cells: HEK 293 cells stably transfected with CX3CR1

[4] = system: RSV; assay: RSV plaque reduction assay on Vero cells (Example 1); format: cell-based, RSV/A2; settings: 5 μg/ml
Experimental: Dilutions of Fkn (R&D systems), SDF-1 α (R&D systems), G glycoprotein, heparin (Sigma), G glycoprotein peptides and anti-CX3CR1 antibody were made in serum-free Dulbecco's Modified Eagle's Media (DMEM; GIBCO) containing 1% BSA (Sigma) and preincubated with the Vero cells for 1 h at 37° C. 50 μg of anti-CX3CR1 antibody or heat-inactivated (56° C., 30 min) normal rabbit sera (control) were used in all experiments. […] Dilutions of RSV were made in serum-free DMEM (GIBCO) and added to pretreated Vero cells for 2 h at 37° C. Following virus infection, DMEM (GIBCO) containing 10% FBS (Hyclone, Logan, Utah) was added to the wells. Plaques were enumerated using immunostaining for F and G glycoproteins using biotinylated monoclonal antibodies 131-2A (anti-F glycoprotein) and 130-2G (anti-G glycoprotein) as described^45.
RSV plaque reduction following treatment with G glycoprotein, Fkn, G glycoprotein peptides, anti-CX3CR1 antibody, SDF-1-α and/or heparin as described in Methods. Percent inhibition was determined from the mean plaque forming units (pfu) of treated Vero cells over saline-treated Vero cells using a dilution of RSV that would produce 40-80 pfu. p-values were determined using unpaired two-tailed analysis where p<0.05 is significant. The concentration of G glycoprotein was estimated using a molecular weight of 90 kD.

[5] = system: RSV; assay: RSV plaque reduction by small molecule peptide inhibitors on Vero cells (Example II); format: cell-based, RSV/A2; settings: heparin alone, 5 μg/ml
Experimental: Vero cells were treated with PBS, RT33, RT34, Δ+1, Δ−1 and EYp1 peptides (100 μm) in the presence (B) or absence of heparin (A) (5 μg/ml). Percentage inhibition was determined by dividing the mean plaque forming units (PFU) of treated Vero cells by the mean PFU of PBS-treated Vero cells.
Different concentrations of the G glycoprotein peptides and/or 5 μg/ml heparin (Sigma) were diluted in Dulbecco's phosphate buffered saline (D-PBS; GIBCO) and added to Vero cell monolayers for 1 h at 37° C. Pre-treated Vero cells were infected with 10^6 PFU of RSV/A2 diluted in serum-free DMEM (GIBCO) for 2 h at 37° C., after which DMEM (GIBCO) containing 10% FBS (Hyclone, Logan, Utah) was added, and the infected cells incubated at 37° C. for 3-4 days. Plaques were enumerated by immunostaining with monoclonal antibodies against the G and F glycoproteins (130-2G and 131-2A, respectively), as described (54,55).

[6] = system: G glycoprotein binding to 293-CX3CR1 cells; set-up: species or system human; settings: heparin 5 μg/ml alone
Experimental: All binding studies were done on ice and either G glycoprotein or human Fkn (R&D Diagnostics, Minneapolis, Minn.) were diluted between 1 nM-100 nM in PBS (GIBCO) containing 1% bovine serum albumin (Sigma) and incubated with the 293-CX3CR1 cells or 293 control cells for 30 min at 4° C. […] Without washing, 100 pM of either Fkn or G glycoprotein was added and incubated for 30 min at 4° C. The cells were washed, blocked with FcγRIII blocking antibody (HB197) for 30 min on ice, washed and stained as appropriate with either an anti-G glycoprotein monoclonal antibody cocktail (132-5B, 132-5G, 130-2G, 232-IF) or a biotinylated anti-G glycoprotein monoclonal antibody cocktail (130-2G, 131-2G) or anti-Fkn monoclonal antibody (51637.11; R&D Diagnostics). Concentrations of 1 μg of anti-G glycoprotein monoclonal antibody (131-2G)^34, rabbit anti-CX3CR1 sera^33, and anti-CX3CR1 monoclonal antibody containing 10 μg/ml heparin were used in all experiments. […] Staining was detected with absorbed FITC-goat anti-mouse (H & L chain) monoclonal antibody (PharMingen, San Diego, Calif.) or streptavidin-PE (PharMingen) using flow cytometry (FACScan, Becton-Dickinson, Mountain View, Calif.). A 76 amino acid ^125I-Fkn polypeptide comprising the […] (NEN, Boston, Mass.) was used in radioligand studies^33. As a control, the void volume following purified G glycoprotein passaged over an anti-G glycoprotein antibody (130-2G) affinity column was examined by flow cytometry for binding to either 293 or 293-CX3CR1 cells.
For peptide inhibition studies, a series of G glycoprotein peptides were identified in the amino acid sequence of the A2 strain of RSV (GENBANK, attachment protein locus 1912305, Table 4). The peptides were synthesized using a simultaneous, multiple solid-phase peptide synthesis method on a peptide synthesizer (Perkin-Elmer Applied Biosystems, Berkeley, Calif.), and tested for homogeneity by reverse-phase liquid chromatography and capillary electrophoresis (www.biotech.cdc.gov/protein/methods). Inhibition assays were performed as described for the binding studies above.
To determine if G glycoprotein bound 293-CX3CR1 cells via CX3CR1, the ability of four reagents (anti-CX3CR1 rabbit antiserum, anti-CX3CR1 monoclonal antibody (2A9-1), Fkn and a 76 amino acid 125-I-Fkn polypeptide containing the CX3C domain) that bind to CX3CR1 to block G glycoprotein binding to 293-CX3CR1 cells was examined. In addition, to determine if binding of G glycoprotein to 293-CX3CR1 cells was dependent upon the CX3C motif, G glycoprotein peptides with a single residue insertion (Δ+1) or deletion (Δ−1) in the CX3C motif and also peptides that lacked or included the CX3C motif (Table 4) were generated. This panel of peptides was analyzed for their ability to block G glycoprotein or Fkn binding to 293-CX3CR1 cells.
Inhibition of Fkn and G glycoprotein binding to 293-CX3CR1 cells by treatment with monoclonal antibodies to G glycoprotein or CX3CR1, or treatment with G glycoprotein, Fkn, or G glycoprotein peptides in the presence or absence of heparin as described in Methods. […] The concentration of G glycoprotein was estimated using a molecular weight of 90 kD.

[7] = 10 nM ligand, representative experiment, FIG. 1

Molecule	binding to 293 cells [1]	binding to 293-CX3CR1 cells [2]	Range of Inhibition (%) of Fkn binding [3]	plaque inhibition (%) [4] [%]	inhibition of plaque formation [5] [%]	Range of Inhibition (%) of G glycoprotein binding [6]	percent positive staining of 293 cells [1, 7] [%]	percent positive staining of CX3CR1-293 cells [2, 7] [%]
F glycoprotein: RSV F (fusion) glycoprotein in wheat germ lectin column fraction	8%	12%	–	–	–	–	–	–
Heparin [reference compound]	–	–	57-65%	66	80	78-84%	–	–
B1	7-12%	68-88%	–	–	–	–	12	68
